Reference: patent US20150093333A1, “COMPOSITIONS, METHODS AND USES FOR PEPTIDES IN DIAGNOSIS, PROGRESSION AND TREATMENT OF CANCERS” (THE REGENTS OF THE UNIVERSITY OF COLORADO, body corporate, priority 2003, published 2015)
Read-outs that look alike come from different tables or passages of the source. Where no end group is shown, it is not given here. [ ]: non-standard residue; d: D form. Lys(N3) = [N-]=[N+]=NCCCC[C@H](N)C(=O)O; Pra = C#CC[C@H](N)C(=O)O

B1: Syt1: Synaptotagmin-I, curvature-sensing protein used as positive control (protein, UniProt P21707 1-421, looked up)
Synaptotagmin-1: MVSASHPEALAAPVTTVATLVPHNATEPASPGEGKEDAFSKLKQKFMNELHKIPLPPWALIAIAIVAVLLVVTCCFCVCKKCLFKKKNKKKGKEKGGKNAINMKDVKDLGKTMKDQALKDDDAETGLTDGEEKEEPKEEEKLGKLQYSLDYDFQNNQLLVGIIQAAELPALDMGGTSDPYVKVFLLPDKKKKFETKVHRKTLNPVFNEQFTFKVPYSELGGKTLVMAVYDFDRFSKHDIIGEFKVPMNTVDFGHVTEEWRDLQSAEKEEQEKLGDICFSLRYVPTAGKLTVVILEAKNLKKMDVGGLSDPYVKIHLMQNGKRLKKKKTTIKKNTLNPYYNESFSFEVPFEQIQKVQVVVTVLDYDKIGKNDAIGKVFVGYNSTGAELRHWSDMLANPRRPIAQWHTLQVEEEVDAMLAVKK
B2: C2AB: intact C2A-C2B cytoplasmic domains of rat Synaptotamin-1 (a.a. 96-421), positive control (protein, UniProt P21707 96-421, looked up, fragment)
chain: GGKNAINMKDVKDLGKTMKDQALKDDDAETGLTDGEEKEEPKEEEKLGKLQYSLDYDFQNNQLLVGIIQAAELPALDMGGTSDPYVKVFLLPDKKKKFETKVHRKTLNPVFNEQFTFKVPYSELGGKTLVMAVYDFDRFSKHDIIGEFKVPMNTVDFGHVTEEWRDLQSAEKEEQEKLGDICFSLRYVPTAGKLTVVILEAKNLKKMDVGGLSDPYVKIHLMQNGKRLKKKKTTIKKNTLNPYYNESFSFEVPFEQIQKVQVVVTVLDYDKIGKNDAIGKVFVGYNSTGAELRHWSDMLANPRRPIAQWHTLQVEEEVDAMLAVKK

Key:
[1] = system: 8:2 POPC/POPS lipid vesicles; assay: Fluorescence enhancement assay of C2B derived peptides with lipid vesicles; format: binding; conditions: for lipid vesicle binding and curvature sensing (fluorescence enhancement): 8:2 POPC/POPS vesicles 0.03 to 0.08 μm
Experimental: In certain examples, lipid vesicles were prepared using extrusion through membranes with pore sizes of 30, 80, and 400 nm to cover a wide range of curvatures. […] A lipid film was deposited on a glass vial by blowing down to dryness with Ar or N2 a CHCl3 solution of the lipids (Avanti Polar Lipids), followed by the removal of residual organic solvent under vacuum for several hours. The lipid film was hydrated overnight at 4° C. in PBS pH 7.4, the lipid suspension of multilamellar vesicles were subjected to five freeze-thaw cycles (except for extrusion through 400 nm pores), and followed by extrusion through polycarbonate membranes with pore diameters of 30, 80, and 400 nm to produce the desired SUVs using […]. […] An increase in the observed fluorescence intensity and a blue shifted λem maximum are directly correlated to a change in the environment surrounding the peptide, e.g., from the polar aqueous solvent to the hydrophobic lipid vesicle, and indicate a peptide-lipid interaction. The peptides were prepared by microwave-assisted SPPS, purified by reversed phase HPLC, and characterized by MALDI-TOF-MS. […] An increase in the observed fluorescence intensity and a blue shifted λem maximum are directly correlated to a change in the environment surrounding the peptide, i.e., from the polar aqueous solvent to the hydrophobic lipid vesicle, indicating a peptide-lipid interaction. Lipid vesicles composed of 8:2 palmitoyl oleoyl phosphatidylcholine (POPC) and palmitoyl oleoyl phosphatidylserine (POPS) were used to represent the approximate phospholipid composition of cellular membranes. These vesicles were prepared by extruding a suspension of multilamellar lipid vesicles in PBS buffer (pH=7.4) through polycarbonate membranes. The diameters of these lipid vesicles were measured using dynamic light scattering (DLS) that was calibrated with 50 nm polystyrene beads. […] FIG. 2 illustrates exemplary fluorescence assays performed to assess the interaction of labeled-peptides on synthetic and biologically relevant lipid vesicles. […]

lipid vesicles [2] = assay: 1H NMR of C2B derived peptides treated with lipid vesicles; format: binding
Experimental: To verify that the origin of the differential peptide interaction towards lipid vesicles is due to the innate property of the peptide itself and not due to the fluorophores, ^1H NMR spectrometry investigations to probe the interaction of C2B derived peptides were carried out.
This observation is in contrast to NMR profiles of peptides that are known to interact with liposomes.

lipid vesicles [3] = conditions: cited from earlier work
[4] = system: synthetic vesicles of sizes 100 nm and 400 nm; assay: Cosedimentation assay of MARCKS-ED with synthetic vesicles; format: binding; conditions: gel electrophoresis of supernatant and pellet
Source text: In another exemplary method, lipid vesicles were employed to the curvature-sensing behavior of the MARCKS derived peptides with various sizes and lipid components. The membrane curvature is defined as the reciprocal of the diameter of a particular particle, e.g., smaller-sized vesicles present highly curved membrane bilayers. A series of lipid models were made to represent various lipid components that closely resemble the lipid composition of biological membranes. […] Dynamic light scattering (DLS) and negative-stain transmission electron microscopy (TEM) were performed to confirm the different vesicle sizes following the pressure-controlled extrusion process through different membrane diameter pores. Commercial polystyrene beads were used as the calibration standard for the vesicle size validation experiments. Furthermore, a time-course experiment was carried out to confirm the stability of the vesicles up to 16 hours. Three different membrane diameters were extruded for the following biophysical characterizations: 30 nm, 100 nm, 400 nm, reflecting different membrane curvatures.
In another exemplary method, a cosedimentation assay was performed to test the size differentiation behavior of MARCKS-ED. Two vesicle pore sizes, 100 and 400 nm, were used in this experiment because vesicles smaller than 100 nm were difficult to pellet even at high centrifugation speed. MARCKS-ED (10 μM) was incubated with 600 μM synthetic vesicles of sizes 100 nm and 400 nm. The positive control was the intact C2A-C2B cytoplasmic domains (C2AB) of rat Synaptotamin-1 (a.a. 96-421). C2AB (1.5 μM) was treated with CaCl2 (1 mM) and incubated with 300 μM synthetic vesicles of sizes 100 nm and 400 nm. C2AB treated with vesicles was incubated at room temperature for 30 minutes, followed by centrifugation of 65,000 rpm for 45 minutes at 20° C. MARCKS-ED treated with vesicles was incubated at room temperature for 2 hours, followed by 75,000 rpm for 45 minutes at 20° C. […]

Molecule	lipid vesicle binding and curvature sensing (fluorescence enhancement) [1]	interaction with liposomes (1H NMR peak intensity) (lipid vesicles [2]; 0.03 μm vesicles)	interaction with liposomes (1H NMR peak intensity) (lipid vesicles [2]; vesicles with d=55±6 nm)	Kd (lipid vesicles [3]; 105 nm vesicles) [µM]	also measured
C2B-Trp 4: linear GGDYDKIGKNDA peptide with N-terminal tryptophan (N-terminal tryptophan)	significant binding and curvature sensing property	are interacting with the lipid vesicles			
C2BL3C 1: 12-residue cyclic peptide from Syt1 C2B loop 3, Click cyclization of GGPraDYDKIGKNDANle(ε-N3) (GG[Pra]DYDKIGKNDA[Lys(N3)]-NH2; triazole (positions not given here); numbers in words are those of the source; also: Pra after Gly2 and Nle(ε-N3) after Ala12 joined by click triazole (head-to-tail side-chain cyclisation))			also interacts with liposomes		
Ac-GGDYDKIGKNDA-NH2 [C2B-Ac 3, linear 12-residue peptide derived from amino acids 363-372 of Syt1]		does not interact with the liposomes	weaker binding		
C2B-Cou 5: linear GGDYDKIGKNDA peptide N-terminally labeled with 7-hydroxycoumarin-3-carboxylic acid ({7‑hydroxycoumarin‑3‑carbonyl}-GGDYDKIGKNDA)	significant binding and curvature sensing property	are interacting with the lipid vesicles			
B1				151	fluorescence enhancement ([1]; with 30 nm vesicles, FIG. 2a): 1.28±0.02 RFU; Kd (lipid vesicles [3]; 252 nm vesicles): 263 ± 180 µM
B2				151 ± 6	pull-down by 100 nm vs 400 nm PS-containing vesicles [4]: more MARCKS-ED or C2AB was pulled down by the 100 nm, PS-containing vesicles than by the larger 400 nm vesicles; increase in binding to smaller vesicles (105 nm) relative to the larger ones (252 nm) (lipid vesicles [3]): 1.9 fold
